# Laboratory results reported in ChEMBL document CHEMBL3763146 (J Med Chem, 2016).
# What was measured:
# [1] = Induction of phospholidosis in human HepG2 cells incubated overnight by […] in presence of fluorescent labeled phospholipid probe NBD-PE; format: cell-based; details: read-out: A50
# [2] = target: Sodium-dependent serotonin transporter (Homo sapiens, UniProt P31645); assay: Inhibition of human SERT expressed in HEK293 cells preincubated for 30 mins followed by fluorescent substrate addition measured after 30 mins by plate reader analysis; format: cell-based
# [3] = target: Sodium channel protein type 2 subunit alpha (Homo sapiens, UniProt Q99250); assay: Inhibition of human Nav1.2 channel expressed in Xenopus oocytes by two-intracellular microelectrode voltage clamp method; format: cell-based
# [4] = target: Voltage-dependent L-type calcium channel subunit alpha-1C (Homo sapiens, UniProt Q13936); assay: Displacement of [3H]-diltiazem from human Cav1.2 channel
# [5] = target: Voltage-gated inwardly rectifying potassium channel KCNH2 (Homo sapiens, UniProt Q12809); assay: Binding affinity to human ERG channel
# [6] = target: T1, Beta-3 adrenergic receptor (Homo sapiens, UniProt P13945); assay: Agonist activity at human beta3 adrenergic receptor expressed in CHO cells assessed as accumulation of cAMP after 30 mins by TR-FRET assay relative to (R)-(-)-isoproterenol; format: functional, cell-based
# [7] = target: T1, Beta-3 adrenergic receptor; assay: Agonist activity at human beta3 adrenergic receptor expressed in CHO cells assessed as accumulation of cAMP after 30 mins by TR-FRET assay; format: functional, cell-based
# [8] = target: Beta-2 adrenergic receptor (Homo sapiens, UniProt P07550)
# Description: Displacement of [125]I-cyanopindolol from human recombinant beta2 adrenergic receptor after 1 hr by scintillation counting method
# [9] = target: Beta-1 adrenergic receptor (Homo sapiens, UniProt P08588)
# Description: Displacement of [125]I-cyanopindolol from recombinant human beta1 adrenergic receptor after 1 hr by scintillation counting method
# [10] = Plasma clearance in rat at 1 mg/kg, iv or 2 mg/kg, po; format: ADME, organism-based
# [11] = Half life in rat at 1 mg/kg, iv or 2 mg/kg, po; format: ADME, organism-based; details: in vivo
# [12] = system: Rattus norvegicus; assay: Dose normalized total AUC in rat at 2 mg/kg, po; format: ADME, organism-based; details: in vivo
# [13] = Oral bioavailability in rat at 2 mg/kg; format: ADME, organism-based; details: in vivo
# [14] = Distribution coefficient, logD of the compound at pH 7.4; format: physicochemical; details: octanol/water
# [15] = system: Rattus norvegicus; assay: Increase in circulating glycerol level in iv infused Sprague-Dawley rat after 45 mins by liquid chromatography-tandem mass spectrometric analysis; format: functional
# [16] = system: Rattus norvegicus; assay: Increase in circulating free fatty acid level in iv infused Sprague-Dawley rat after 45 mins by liquid chromatography-tandem mass spectrometric analysis; format: functional
# [17] = target: Cytochrome P450 3A4 (Homo sapiens, UniProt P08684); assay: Inhibition of CYP3A4 in human liver microsomes assessed as testosterone 6beta-hydroxylation; format: ADME
# [18] = target: Cytochrome P450 2D6 (Homo sapiens, UniProt P10635); assay: Inhibition of CYP2D6 in human liver microsomes assessed as dextraomethorphan O-demethylation; format: ADME
# [19] = target: Cytochrome P450 2C9 (Homo sapiens, UniProt P11712); assay: Inhibition of CYP2C9 in human liver microsomes assessed as diclofenac alpha'-hydroxylation; format: ADME
# Sodium-dependent serotonin transporter, sequence (P31645 whole entry): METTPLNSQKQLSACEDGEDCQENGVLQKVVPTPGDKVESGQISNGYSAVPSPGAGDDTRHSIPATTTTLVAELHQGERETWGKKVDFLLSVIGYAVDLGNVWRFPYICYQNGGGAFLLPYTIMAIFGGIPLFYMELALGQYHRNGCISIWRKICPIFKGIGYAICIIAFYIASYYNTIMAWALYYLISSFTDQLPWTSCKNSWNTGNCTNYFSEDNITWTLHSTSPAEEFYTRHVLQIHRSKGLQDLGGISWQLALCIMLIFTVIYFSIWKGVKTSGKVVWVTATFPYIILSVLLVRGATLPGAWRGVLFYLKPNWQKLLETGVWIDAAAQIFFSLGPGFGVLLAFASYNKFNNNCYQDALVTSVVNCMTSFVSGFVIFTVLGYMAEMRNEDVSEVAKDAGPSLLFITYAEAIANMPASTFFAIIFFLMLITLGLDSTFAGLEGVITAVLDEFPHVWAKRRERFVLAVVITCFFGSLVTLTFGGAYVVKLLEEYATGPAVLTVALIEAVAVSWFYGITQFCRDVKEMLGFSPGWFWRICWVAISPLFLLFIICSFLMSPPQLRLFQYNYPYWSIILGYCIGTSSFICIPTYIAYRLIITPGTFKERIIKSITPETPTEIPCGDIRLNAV
# Voltage-dependent L-type calcium channel subunit alpha-1C, sequence (Q13936 whole entry): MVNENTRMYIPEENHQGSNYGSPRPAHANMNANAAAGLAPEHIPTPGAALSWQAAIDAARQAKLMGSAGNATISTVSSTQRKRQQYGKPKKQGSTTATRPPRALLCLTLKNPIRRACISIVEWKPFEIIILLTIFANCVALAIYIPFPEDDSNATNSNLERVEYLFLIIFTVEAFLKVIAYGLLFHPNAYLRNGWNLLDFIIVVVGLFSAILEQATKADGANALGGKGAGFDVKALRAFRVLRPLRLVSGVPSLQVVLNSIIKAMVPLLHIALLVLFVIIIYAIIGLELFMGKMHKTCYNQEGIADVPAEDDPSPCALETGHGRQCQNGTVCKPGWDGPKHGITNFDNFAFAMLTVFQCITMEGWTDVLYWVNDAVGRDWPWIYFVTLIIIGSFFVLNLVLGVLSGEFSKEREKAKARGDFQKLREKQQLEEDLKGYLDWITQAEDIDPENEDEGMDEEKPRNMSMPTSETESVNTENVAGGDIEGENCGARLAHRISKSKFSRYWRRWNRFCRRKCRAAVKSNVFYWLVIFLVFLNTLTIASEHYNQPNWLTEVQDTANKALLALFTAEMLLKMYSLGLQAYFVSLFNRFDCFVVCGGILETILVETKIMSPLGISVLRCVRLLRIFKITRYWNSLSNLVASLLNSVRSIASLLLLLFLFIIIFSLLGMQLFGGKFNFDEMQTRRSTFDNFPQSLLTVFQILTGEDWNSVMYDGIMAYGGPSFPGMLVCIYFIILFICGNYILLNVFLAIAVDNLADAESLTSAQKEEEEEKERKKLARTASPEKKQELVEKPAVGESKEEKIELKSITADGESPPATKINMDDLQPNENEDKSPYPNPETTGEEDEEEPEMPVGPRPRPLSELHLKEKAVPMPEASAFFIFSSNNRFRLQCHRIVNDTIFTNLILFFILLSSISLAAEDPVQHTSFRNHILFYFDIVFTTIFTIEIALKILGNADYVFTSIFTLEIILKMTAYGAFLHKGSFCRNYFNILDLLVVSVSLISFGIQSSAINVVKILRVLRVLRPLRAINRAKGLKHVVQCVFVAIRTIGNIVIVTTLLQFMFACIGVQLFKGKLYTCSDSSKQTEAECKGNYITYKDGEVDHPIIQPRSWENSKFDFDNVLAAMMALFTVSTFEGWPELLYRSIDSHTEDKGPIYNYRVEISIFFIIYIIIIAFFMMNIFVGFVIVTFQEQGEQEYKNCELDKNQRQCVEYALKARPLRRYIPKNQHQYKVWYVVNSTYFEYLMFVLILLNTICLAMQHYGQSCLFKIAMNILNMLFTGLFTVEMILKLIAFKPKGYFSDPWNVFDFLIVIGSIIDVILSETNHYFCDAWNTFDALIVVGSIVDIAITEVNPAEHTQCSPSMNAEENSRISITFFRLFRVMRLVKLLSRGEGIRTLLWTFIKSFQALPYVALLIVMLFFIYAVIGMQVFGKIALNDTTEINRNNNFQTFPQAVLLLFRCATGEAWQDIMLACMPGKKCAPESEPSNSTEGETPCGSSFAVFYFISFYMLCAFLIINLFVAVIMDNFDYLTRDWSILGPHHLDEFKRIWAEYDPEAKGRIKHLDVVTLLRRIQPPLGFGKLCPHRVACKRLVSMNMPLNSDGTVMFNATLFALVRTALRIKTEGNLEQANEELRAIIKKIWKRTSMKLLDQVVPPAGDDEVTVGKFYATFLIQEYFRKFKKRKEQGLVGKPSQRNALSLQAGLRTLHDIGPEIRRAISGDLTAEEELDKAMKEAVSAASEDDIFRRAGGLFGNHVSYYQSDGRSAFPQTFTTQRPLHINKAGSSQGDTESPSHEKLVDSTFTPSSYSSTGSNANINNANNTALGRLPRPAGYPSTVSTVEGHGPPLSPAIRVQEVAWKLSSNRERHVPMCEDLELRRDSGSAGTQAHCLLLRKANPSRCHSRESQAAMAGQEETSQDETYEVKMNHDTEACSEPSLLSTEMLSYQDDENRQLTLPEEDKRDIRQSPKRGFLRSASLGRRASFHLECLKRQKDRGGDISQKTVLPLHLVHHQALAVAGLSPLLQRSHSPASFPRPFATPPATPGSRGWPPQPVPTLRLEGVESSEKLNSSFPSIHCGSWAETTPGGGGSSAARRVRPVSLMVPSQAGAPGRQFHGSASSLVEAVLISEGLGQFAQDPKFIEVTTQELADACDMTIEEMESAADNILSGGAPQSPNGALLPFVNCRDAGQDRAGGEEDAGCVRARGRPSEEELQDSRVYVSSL
# Sodium channel protein type 2 subunit alpha, sequence (Q99250 whole entry, looked up): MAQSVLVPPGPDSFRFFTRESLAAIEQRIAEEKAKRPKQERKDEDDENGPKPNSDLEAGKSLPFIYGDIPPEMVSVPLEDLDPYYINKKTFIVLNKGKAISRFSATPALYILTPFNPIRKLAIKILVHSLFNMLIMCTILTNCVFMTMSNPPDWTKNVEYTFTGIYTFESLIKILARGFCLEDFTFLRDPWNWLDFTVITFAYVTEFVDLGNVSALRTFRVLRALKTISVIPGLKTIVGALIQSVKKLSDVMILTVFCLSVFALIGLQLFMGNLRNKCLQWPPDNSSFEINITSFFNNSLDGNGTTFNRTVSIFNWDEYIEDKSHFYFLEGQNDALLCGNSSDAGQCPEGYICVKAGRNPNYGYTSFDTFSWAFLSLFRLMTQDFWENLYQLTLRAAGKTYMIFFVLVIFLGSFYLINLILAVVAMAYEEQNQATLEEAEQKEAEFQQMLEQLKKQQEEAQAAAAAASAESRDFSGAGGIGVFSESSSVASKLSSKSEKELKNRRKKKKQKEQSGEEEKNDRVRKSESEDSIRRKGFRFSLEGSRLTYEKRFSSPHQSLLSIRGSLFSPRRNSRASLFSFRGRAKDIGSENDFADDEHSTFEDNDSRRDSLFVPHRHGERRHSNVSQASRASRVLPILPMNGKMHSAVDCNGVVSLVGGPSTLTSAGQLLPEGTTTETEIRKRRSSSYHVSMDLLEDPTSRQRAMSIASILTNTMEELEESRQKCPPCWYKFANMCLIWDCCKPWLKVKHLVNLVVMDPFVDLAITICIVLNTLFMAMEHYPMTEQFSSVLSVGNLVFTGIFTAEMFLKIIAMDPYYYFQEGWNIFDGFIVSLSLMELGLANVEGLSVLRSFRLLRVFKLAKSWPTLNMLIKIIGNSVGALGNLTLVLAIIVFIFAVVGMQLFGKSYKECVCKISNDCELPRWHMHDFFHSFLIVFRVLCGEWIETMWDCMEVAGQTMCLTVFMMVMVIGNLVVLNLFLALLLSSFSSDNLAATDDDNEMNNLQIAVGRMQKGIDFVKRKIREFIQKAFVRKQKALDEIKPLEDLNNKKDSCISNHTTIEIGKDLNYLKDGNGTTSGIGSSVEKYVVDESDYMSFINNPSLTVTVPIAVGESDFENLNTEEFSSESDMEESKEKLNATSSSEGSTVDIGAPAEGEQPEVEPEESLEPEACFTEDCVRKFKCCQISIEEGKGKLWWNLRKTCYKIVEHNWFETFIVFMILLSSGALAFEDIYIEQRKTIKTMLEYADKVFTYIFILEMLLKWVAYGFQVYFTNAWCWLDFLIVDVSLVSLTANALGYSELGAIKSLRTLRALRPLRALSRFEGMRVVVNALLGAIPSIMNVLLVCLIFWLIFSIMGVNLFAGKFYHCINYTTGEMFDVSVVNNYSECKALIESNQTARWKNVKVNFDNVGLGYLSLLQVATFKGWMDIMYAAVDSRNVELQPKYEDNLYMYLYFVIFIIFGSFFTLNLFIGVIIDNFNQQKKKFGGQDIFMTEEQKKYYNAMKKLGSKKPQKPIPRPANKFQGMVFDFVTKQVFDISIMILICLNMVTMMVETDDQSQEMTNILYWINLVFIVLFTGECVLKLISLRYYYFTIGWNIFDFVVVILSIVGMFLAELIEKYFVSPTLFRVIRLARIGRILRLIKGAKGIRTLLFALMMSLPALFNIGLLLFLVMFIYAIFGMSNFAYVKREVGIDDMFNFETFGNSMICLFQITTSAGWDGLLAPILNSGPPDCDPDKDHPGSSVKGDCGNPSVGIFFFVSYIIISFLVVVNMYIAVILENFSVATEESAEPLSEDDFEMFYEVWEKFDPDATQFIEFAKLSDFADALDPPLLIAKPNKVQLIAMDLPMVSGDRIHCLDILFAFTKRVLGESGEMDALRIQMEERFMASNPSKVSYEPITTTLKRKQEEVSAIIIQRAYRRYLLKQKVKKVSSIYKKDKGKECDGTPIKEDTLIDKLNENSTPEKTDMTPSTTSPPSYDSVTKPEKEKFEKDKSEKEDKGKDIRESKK
Structure (SMILES),AC50 [1],IC50 [2],IC50 [3],IC50 [4],IC50 [5],max activation [6],EC50 [7],IC50 [8],IC50 [9],clearance [10],half-life [11],bioavailability [13],logD [14],also measured
O=C(Cn1ccccc1=O)Nc1ccc(C[C@@H]2CC[C@H]([C@H](O)c3ccccc3)N2)cc1,> 100 µM,1.1 µM,> 30 µM,> 30 µM,> 30 µM,97%,0.0043 µM,> 20 µM,> 20 µM,–,–,–,–,–
C[C@@H](C(=O)Nc1ccc(C[C@@H]2CC[C@H]([C@H](O)c3cccnc3)N2)cc1)n1ncccc1=O,> 100 µM,0.8 µM,> 30 µM,> 30 µM,> 30 µM,87%,0.0026 µM,> 20 µM,> 20 µM,12 mL/min/kg,8 h,< 1%,–,AUC/dose ([12]; BLD = below limit of detection): BLD
Nc1nc(CC(=O)Nc2ccc(C[C@@H]3CC[C@H]([C@H](O)c4ccccc4)N3)cc2)cs1,–,1.4 µM,30 µM,–,19 µM,92%,0.0009 µM,> 20 µM,> 20 µM,–,–,–,1.2,–
Nc1nc(CC(=O)Nc2ccc(CCNC[C@H](O)c3ccccc3)cc2)cs1 [MIRABEGRON],–,–,–,–,–,–,–,–,–,–,–,–,–,"Activity [15]: Dose-dependent effect; minimal effective dose ([15]; 0.75 h, read-out: MED): 0.3 mg/kg; Activity [16]: Dose-dependent effect; minimal effective dose ([16]; 0.75 h, read-out: MED): 0.3 mg/kg"
O=C(Cn1cccnc1=O)Nc1ccc(C[C@@H]2CC[C@H]([C@H](O)c3ccccc3)N2)cc1,> 100 µM,2.5 µM,> 30 µM,> 30 µM,> 30 µM,113%,0.0022 µM,> 20 µM,> 20 µM,24 mL/min/kg,3 h,1%,0.6,IC50 [17]: > 100 µM; IC50 [18]: 39 µM; IC50 [19]: > 100 µM; AUC/dose [12]: 24 nM·h/mg/kg
